{
  "source": "patent US20220064238A1",
  "about": "“Methods And Compositions For Modifying Transcription Factor Activity by Targeting The Human Mediator Complex Using Cell Penetrating Memetic Peptides And Methods of Treating Cancer Using The Same” (The Regents of the University of Colorado, a body corporate, priority 2020, published 2022)",
  "molecular_target": "T1, p53-activated transcription (Gal4-p53AD, Mediator) (Homo sapiens, UniProt Q9NVC6)",
  "T1 construct": "made in house",
  "assay": "In vitro transcription on naked DNA templates, p53-activated (+Gal4-p53AD)",
  "assay_type": "biochemical",
  "conditions": "500 nM peptide",
  "from_the_text": "To screen peptides for the ability to selectively block p53-dependent transcription, we required an assay that enabled p53-dependent activation but that could also support basal (i.e. activator-independent) transcription. The present inventors had previously established an in vitro transcription assay (using highly purified human factors (FIG. 1A). A key feature of this assay was that both activated and basal transcription could be reconstituted on naked DNA templates (i.e. DNA templates not assembled into chromatin). To adapt this assay for purposes of measuring basal vs. p53-activated transcription, we generated templates with Gal4 DNA binding sites upstream of the adenovirus major late promoter sequence (FIG. 5A, B). Upon titration of a Gal4 DNA Binding Domain (DBD)-p53 Activation Domain (AD; residues 1-70) fusion protein into this system, we observed pol II-dependent transcription that was dependent on p53AD and Mediator (FIG. 5C). Reactions containing Gal4-p53AD generally produced about two- to four-fold more transcripts compared to reactions with no activator (FIG. 5C). Because experiments without Gal4-p53AD produced a low level of “basal” transcription that could be quantitated, this system allowed assessment of both p53-activated and basal transcription. […]",
  "note": "Bridge positions count the residues as written; N and C are the ends. Square brackets hold non-standard residues; d marks the D form. Peptide text beside a SMILES is read from it. PEG6 = NCCOCCOCCOCCOCCOCCOCCC(=O)O; R8 = C=CCCCCCC[C@@](C)(N)C(=O)O; S5 = C=CCCC[C@](C)(N)C(=O)O",
  "data": [
    {"smiles": "CC[C@H](C)[C@H](NC(=O)[C@H](CC(=O)O)NC(=O)[C@H](CC(=O)O)NC(=O)[C@@H]1CCCN1C(=O)[C@H](CO)NC(=O)[C@H](CC(C)C)NC(=O)CCOCCOCCOCCOCCOCCOCCNC(=O)[C@H](CCCNC(=N)N)NC(=O)[C@H](CCCNC(=N)N)NC(=O)[C@]1(C)CCCC=CCCCCCC[C@@](C)(NC(=O)[C@H](Cc2ccccc2)NC(=O)[C@H](CCCNC(=N)N)NC(=O)[C@H](CCC(=O)O)NC(=O)[C@H](CCC(N)=O)NC(=O)[C@H](CO)NC(=O)[C@H](CCCNC(=N)N)NC(C)=O)C(=O)N[C@@H](CC(=O)O)C(=O)N[C@@H](CC(C)C)C(=O)N[C@@H](Cc2c[nH]c3ccccc23)C(=O)N[C@@H](CCCCN)C(=O)N[C@@H](CCCNC(=N)N)C(=O)N[C@@H](CC(C)C)C(=O)N1)C(=O)N[C@@H](CCC(=O)O)C(=O)N[C@@H](CCC(N)=O)C(=O)N[C@@H](Cc1c[nH]c2ccccc12)C(=O)N[C@@H](Cc1ccccc1)C(=O)N[C@H](C(=O)N[C@@H](CCC(=O)O)C(=O)N[C@@H](CC(=O)O)C(N)=O)[C@@H](C)O", "note": "[bivalent peptide] (Ac-RSQERF[R8]DLWKRL[S5]RR[PEG6]LSPDDIEQWFTED-NH2; staple 7-14; N-terminus assumed)", "values": [
      {"measurement": "inhibition of p53-activated transcription at 500 nM", "result": "inhibited"}
    ]}
  ]
}
